Data taken from US8524722B2, “Substituted tricyclic compounds and methods of use thereof” (Bayer Intellectual Property GmbH, priority 2007, dated 2013).

molecular target: Epidermal Growth Factor Receptor (EGFR) (Homo sapiens (Human), UniProt P00533); test: EGFR HTRF kinase assay; type: biochemical; details: not given
Procedure: EGFR inhibitory activity of compounds of the present invention is quantified employing the EGFR HTRF assay as described in the following paragraphs:
Epidermal Growth Factor Receptor (EGFR), affinity-purified from human carcinoma A431 cells (Sigma-Aldrich, # E3641), is used as kinase. As substrate for the kinase reaction, the biotinylated peptide biotin-Ahx-[…] (C-terminus in amide form) is used (available from, e.g., Biosynthan GmbH, Berlin-Buch, Germany).
EGFR is incubated for 30 min at 22° C. in the presence of different concentrations of test compounds in 5 μl assay buffer [50 mM Hepes/NaOH pH 7.0, 1 mM MgCl2, 5 mM MnCl2, 1.0 mM dithiothreitol, 0.5 mM sodium orthovanadate, 10 μM adenosine triphosphate (ATP), 1 μM substrate, 0.005% (v/v) Tween-20, 1% (v/v) dimethylsulfoxide]. The concentration of EGFR is adjusted depending on the activity of the enzyme lot and is chosen appropriate to have the assay in the linear range; typical concentrations are in the range of 20 U/ml. The reaction is stopped by the addition of 5 μl of a solution of HTRF detection reagents [0.1 μM streptavidine-XLent and 1 nM PT66-Eu-Chelate, an Europium-chelate labelled anti-phosphotyrosine antibody (Perkin Elmer)] in an aqueous EDTA solution [80 mM EDTA, 0.2% (w/v) bovine serum albumin in 50 mM HEPES/NaOH pH 7.0].
The resulting mixture is incubated for 1 h at 22° C. to allow the binding of the biotinylated phosphorylated peptide to the streptavidine-XLent and the PT66-Eu-Chelate. Subsequently, the amount of phosphorylated substrate is evaluated by measurement of the resonance energy transfer from the PT66-Eu-Chelate to the streptavidine-XLent. Therefore, the fluorescence emissions at 620 nm and 665 nm after excitation at 350 nm are measured in an HTRF reader, e.g. a Rubystar (BMG Labtechnologies, Offenburg, Germany) or a Viewlux (Perkin-Elmer). The ratio of the emissions at 665 nm and at […] is taken as the measure for the amount of phosphorylated substrate.

Chain of Epidermal Growth Factor Receptor (EGFR) (P00533 25-1210): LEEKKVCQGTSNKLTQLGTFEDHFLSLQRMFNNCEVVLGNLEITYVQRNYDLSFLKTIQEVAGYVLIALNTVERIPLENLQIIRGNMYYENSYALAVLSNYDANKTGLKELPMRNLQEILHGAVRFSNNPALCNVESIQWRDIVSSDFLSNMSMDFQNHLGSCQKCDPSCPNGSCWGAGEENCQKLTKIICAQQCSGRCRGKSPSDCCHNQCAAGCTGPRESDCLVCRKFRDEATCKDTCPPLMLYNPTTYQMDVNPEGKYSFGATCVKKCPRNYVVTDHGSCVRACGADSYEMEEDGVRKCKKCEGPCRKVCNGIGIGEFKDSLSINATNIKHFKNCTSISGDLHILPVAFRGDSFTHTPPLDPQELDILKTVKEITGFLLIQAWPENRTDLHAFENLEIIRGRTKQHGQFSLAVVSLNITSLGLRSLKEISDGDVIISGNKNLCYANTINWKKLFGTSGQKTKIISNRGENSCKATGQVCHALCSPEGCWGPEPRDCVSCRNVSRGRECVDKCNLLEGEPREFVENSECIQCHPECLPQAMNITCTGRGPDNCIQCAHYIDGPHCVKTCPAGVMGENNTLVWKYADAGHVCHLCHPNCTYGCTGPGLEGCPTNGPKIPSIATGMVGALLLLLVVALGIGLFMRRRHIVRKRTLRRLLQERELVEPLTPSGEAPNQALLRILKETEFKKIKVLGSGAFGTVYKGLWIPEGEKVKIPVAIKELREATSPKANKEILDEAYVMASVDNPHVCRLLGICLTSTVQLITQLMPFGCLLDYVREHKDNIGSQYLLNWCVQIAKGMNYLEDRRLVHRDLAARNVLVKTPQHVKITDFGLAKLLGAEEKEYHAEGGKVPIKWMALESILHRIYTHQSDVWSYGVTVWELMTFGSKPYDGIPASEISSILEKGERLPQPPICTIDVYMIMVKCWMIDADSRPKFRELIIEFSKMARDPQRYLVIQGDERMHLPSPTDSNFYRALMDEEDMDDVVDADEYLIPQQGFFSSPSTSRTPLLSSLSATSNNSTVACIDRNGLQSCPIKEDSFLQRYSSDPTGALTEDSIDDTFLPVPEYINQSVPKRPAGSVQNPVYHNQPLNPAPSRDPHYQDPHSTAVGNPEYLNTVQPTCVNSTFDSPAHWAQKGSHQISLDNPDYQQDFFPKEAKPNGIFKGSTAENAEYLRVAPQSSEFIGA

Row | Compound | IC50 [nM]
1 | CC(C)N(C)C/C=C/C(=O)N1CCc2c(sc3ncnc(Nc4cc(O)cc(Cl)c4)c23)C1 [Example 123, 3-Chloro-5-[(7-{(2E)-4-[methyl(1-methylethyl)amino]but-2-enoyl}-5,6,7,8-tetrahydropyrido[4′,3′:4,5]thieno[2,3-d]pyrimidin-4-yl)amino]phenol] | 1

same assay, conditions: EGFR affinity-purified from A431 cells, 10 μM ATP, 30 min at 22° C.

Row | Compound | IC50 [nM]
2 | CC(C)N(C)C/C=C/C(=O)N1CCc2sc3ncnc(Nc4ccc(Cl)c(Cl)c4)c3c2C1 [Example 139, N-(3,4-Dichlorophenyl)-6-{(2E)-4-[methyl(1-methylethyl)amino]but-2-enoyl}-5,6,7,8-tetrahydropyrido[3′,4′:4,5]thieno[2,3-d]pyrimidin-4-amine] | 9.2
3 | CN(C)C/C=C/C(=O)N1Cc2sc3ncnc(Nc4ccc(OCc5cccc(F)c5)c(Cl)c4)c3c2C1 [Example 86, N-{3-Chloro-4-[(3-fluorobenzyl)oxy]phenyl}-6-[(2E)-4-(dimethylamino)but-2-enoyl]-6,7-dihydro-5H-pyrrolo[3′,4′:4,5]thieno[2,3-d]pyrimidin-4-amine] | 5
4 | CN(C)C(=O)N1CCN(C/C=C/C(=O)N2CCc3c(sc4ncnc(Nc5ccc(F)c(Cl)c5)c34)C2)CC1 [Example 70] | 1
5 | CN(C)C/C=C/C(=O)N1CCc2c(sc3ncc(C#N)c(Nc4ccc(F)c(Cl)c4)c23)C1 [Example 95, 4-[(3-Chloro-4-fluorophenyl)amino]-7-[(2E)-4-(dimethylamino)but-2-enoyl]-5,6,7,8-tetrahydrothieno[2,3-b:5,4-c′]dipyridine-3-carbonitrile] | 10
6 | COCCN(C/C=C/C(=O)N1CCc2c(sc3ncnc(Nc4ccc(F)c(Cl)c4)c23)C1)CCOC [Example 31] | 1
7 | CN(C)C/C=C/C(=O)N1Cc2sc3ncnc(Nc4ccc(OCc5ccccn5)c(Cl)c4)c3c2C1 [Example 87, N-[3-Chloro-4-(pyridin-2-ylmethoxy)phenyl]-6-[(2E)-4-(dimethylamino)but-2-enoyl]-6,7-dihydro-5H-pyrrolo[3′,4′:4,5]thieno[2,3-d]pyrimidin-4-amine] | 19
8 | O=C(/C=C/CN1CCCOCC1)N1CCc2c(sc3ncnc(Nc4ccc(F)c(Cl)c4)c23)C1 [Example 5, N-(3-Chloro-4-fluorophenyl)-7-[(2E)-4-(1,4-oxazepan-4-yl)but-2-enoyl]-5,6,7,8-tetrahydropyrido[4′,3′:4,5]thieno[2,3-d]pyrimidin-4-amine] | 1
9 | CC(C)N(C)C/C=C/C(=O)N1CCc2c(oc3ncnc(Nc4ccc(F)c(Cl)c4)c23)C1 [Example 90, N-(3-Chloro-4-fluorophenyl)-7-{(2E)-4-[methyl(1-methylethyl)amino]but-2-enoyl}-5,6,7,8-tetrahydropyrido[4′,3′:4,5]furo[2,3-d]pyrimidin-4-amine] | 1
10 | O=C(/C=C/CN1C2CCC1CC2)N1CCc2c(sc3ncnc(Nc4ccc(F)c(Cl)c4)c23)C1 [Example 10, 7-[(2E)-4-(7-Azabicyclo[2.2.1]hept-7-yl)but-2-enoyl]-N-(3-chloro-4-fluorophenyl)-5,6,7,8-tetrahydropyrido[4′,3′:4,5]thieno[2,3-d]pyrimidin-4-amine] | 1.1
11 | C[C@@H](Nc1ncnc2sc3c(c12)CCN(C(=O)/C=C/CN(C)C)C3)c1ccccc1 [Example 23, 7-[(2E)-4-(Dimethylamino)but-2-enoyl]-N-[(1R)-1-phenylethyl]-5,6,7,8-tetrahydropyrido[4′,3′:4,5]thieno[2,3-d]pyrimidin-4-amine] | 4.6
12 | O=C(/C=C/CN1CCCOCC1)N1CCCc2c(sc3ncnc(Nc4ccc(Cl)c(Cl)c4)c23)C1 [Example 143, N-(3,4-Dichlorophenyl)-8-[(2E)-4-(1,4-oxazepan-4-yl)but-2-enoyl]-6,7,8,9-tetrahydro-5H-pyrimido[5′,4′:4,5]thieno[2,3-c]azepin-4-amine] | 1
13 | CC(C)(CN1CCOCC1)NC/C=C/C(=O)N1CCc2c(sc3ncnc(Nc4ccc(F)c(Cl)c4)c23)C1 [Example 12, N-(3-Chloro-4-fluorophenyl)-7-{(2E)-4-[(1,1-dimethyl-2-morpholin-4-ylethyl)amino]but-2-enoyl}-5,6,7,8-tetrahydropyrido[4′,3′:4,5]thieno[2,3-d]pyrimidin-4-amine] | 1
14 | CN1CCC[C@H]1/C=C/C(=O)N1CCc2c(sc3ncnc(Nc4ccc(F)c(Cl)c4)c23)C1 [Example 14, N-(3-Chloro-4-fluorophenyl)-7-{(2E)-3-[(2S)-1-methylpyrrolidin-2-yl]prop-2-enoyl}-5,6,7,8-tetrahydropyrido[4′,3′:4,5]thieno[2,3-d]pyrimidin-4-amine] | 1
15 | N#Cc1cnc2sc3c(c2c1Nc1ccc(Cl)c(Cl)c1)CCN(C(=O)/C=C/CN1CCCOCC1)C3 [Example 148, 4-[(3,4-Dichlorophenyl)amino]-7-[(2E)-4-(1,4-oxazepan-4-yl)but-2-enoyl]-5,6,7,8-tetrahydrothieno[2,3-b:5,4-c′]dipyridine-3-carbonitrile] | 4.3
16 | O=C(/C=C/[C@@H]1CCCN1)N1CCc2c(sc3ncnc(Nc4ccc(F)c(Cl)c4)c23)C1 [Example 13, N-(3-Chloro-4-fluorophenyl)-7-{(2E)-3-[(2S)-pyrrolidin-2-yl]prop-2-enoyl}-5,6,7,8-tetrahydropyrido[4′,3′:4,5]thieno[2,3-d]pyrimidin-4-amine] | 2
17 | CC(C)N(C)C/C=C/C(=O)N1CCc2c(sc3ncc(C#N)c(Nc4ccc5c(cnn5Cc5cccc(F)c5)c4)c23)C1 [Example 151, 4-{[1-(3-Fluorobenzyl)-1H-indazol-5-yl]amino}-7-{(2E)-4-[methyl(1-methylethyl)amino]but-2-enoyl}-5,6,7,8-tetrahydrothieno[2,3-b:5,4-c′]dipyridine-3-carbonitrile] | 6.4
18 | CN(C)C/C=C/C(=O)N1Cc2sc3ncnc(Nc4ccc(F)c(Cl)c4)c3c2C1 [Example 81, N-(3-Chloro-4-fluorophenyl)-6-[(2E)-4-(dimethylamino)but-2-enoyl]-6,7-dihydro-5H-pyrrolo[3′,4′:4,5]thieno[2,3-d]pyrimidin-4-amine] | 12
19 | CN(C/C=C/C(=O)N1CCc2c(sc3ncnc(Nc4cc(O)c(Cl)c(Cl)c4)c23)C1)C(C)(C)C [Example 134, 5-[(7-{(2E)-4-[tert-Butyl(methyl)amino]but-2-enoyl}-5,6,7,8-tetrahydropyrido[4′,3′:4,5]thieno[2,3-d]pyrimidin-4-yl)amino]-2,3-dichlorophenol] | 1
